Laboratory results taken from patent US20140213575A1, “6H-Thieno[3,2-f][1,2,4]triazolo[4,3-a][1,4]diazepines” (BAYER INTELLECTUAL PROPERTY GMBH, priority 2011, published 2014).
“Also recorded” adds a separate entry of the source.

What was measured:
plasma proteins = assay: Plasma protein binding by equilibrium dialysis; type: in vitro ADME, mouse
Method: The binding of test substances to plasma proteins is determined by equilibrium dialysis by means of the Ht-dialysis apparatus (96-well) made of Teflon and a semipermeable membrane (regenerated cellulose, MWCO 12-14K). This separates 150 μl of each of a plasma side and a buffer side (50 mM phosphate buffer). The test substance is added in 2 concentrations (usually 3 and 0.3 μM) to the plasma side and binds to plasma proteins. The unbound fraction of the test substance passes through the membrane and is distributed on either side until equilibrium is established (after approx. 6-8 h at 37° C.). The substance concentration on the buffer side and the plasma side is determined by LC-MS analysis. For this, both sides are brought by dilution with buffer or plasma to the same matrix (10% plasma) and then precipitated with methanol. The free (unbound) fraction (fu) is calculated from the quotient of the buffer and plasma concentration. Stability tests and recovery tests are run concurrently as controls. In addition, the substance in buffer is dialysed against buffer, to check the nonspecific binding to apparatus and membrane and establishment of equilibrium. Because during incubation the osmotic pressure of the plasma proteins leads to dilution of the plasma (volume shift), this possible error is determined by weighing blank plasma samples and is included in the calculation of fu. Establishment of equilibrium and plasma stability should have a value not lower than 80% and the recovery should be at least 30%. A free fraction of <1% is regarded as high, between 1 and 10% as moderate and >10% as low plasma protein binding.

[1] = Plasma concentrations from in-vivo tests and PK parameters; conditions: mouse; for Plasma concentration: 60 mg/kg p.o.
Method: After thawing and shaking, the samples are centrifuged for 20 minutes at 4° C. and approx. 2000×g. An aliquot of the supernatant (approx. 25 μL) is measured by LCMS analysis. If high plasma or tissue levels are expected (>ULOQ, as a rule 5 μM) the precipitated samples are additionally diluted 1:100 with ACN/H2O (80/20, v/v)+internal standard and corresponding aliquots are measured by LCMS. For this, the test substance is added in 5-9 concentrations, corresponding to the determination range of the analytical method, to a control matrix (calibration samples), e.g. 0, 1, 10, 100, 1000, 5000 nM. For this, a portion of solid is weighed and is dissolved in DMSO (as a rule 1 mM stock solution). This stock solution is further diluted 1:10 with DMSO ([…]). Then 1:5 (v/v) ACN+internal standard (soln. A) is added to the calibration samples and processed further as with the plasma samples. The calibration series in solvent takes place similarly to the plasma calibration described. The test substance is in this case prepared in ACN/H2O (50/50, v/v) and then 1:5 (v/v) ACN+internal standard is added to the samples. This series serves for calibration of the diluted samples. The following PK parameters are calculated from these concentration-time profiles obtained: […]
AUC(0-tlast),norm multiplied by the free fraction (fu) of the species investigated.

VCaP cells = assay: Cellular proliferation assay (alamarBlue) VCaP; type: cell-based; conditions: Homo sapiens, 168 hours, read-out: Prostate VCaP IC50
Method: (§1) In accordance with the invention, the ability of the substances to inhibit the proliferation of various cell lines was determined. Cell viability was determined by means of the alamarBlue® reagent (Invitrogen). […] After incubation overnight at 37° C., the fluorescence values were determined (CI values). […] Then the fluorescence values were determined (CO values).
(§2) The substances were investigated in the cell lines in Table 1, which for example represent the stated indications: […]

LNCaP cells = assay: Cellular proliferation assay (alamarBlue) LNCaP; type: cell-based; conditions: Homo sapiens, 168 hours, read-out: Prostate LNCaP IC50
Method: as §1, §2

HeLa-MaTu cells = assay: Cellular proliferation assay (alamarBlue) HeLa-MaTu; type: cell-based; conditions: 96 hours, read-out: Cervix HeLa-MaTu IC50
Method: as §1, §2

MOLM-13 cells [2] = assay: Cellular proliferation assay (alamarBlue) MOLM-13; type: cell-based; conditions: Homo sapiens, 96 hours, read-out: Leukaemia MOLM-13 IC50
Method: as §1, §2

MOLM-13 cells [3] = assay: MOLM-13 acute monocytic leukaemia tumour model; conditions: 70 mg/kg oral daily; significance P<0.05
Method: NMRI nude mice were inoculated subcutaneously in the right flank on day 0 with 2×10^6 MOLM-13 cells in 0.1 ml Matrigel. […] Practical example 1 and practical example 2 were dissolved in 40% PEG400, 5% ethanol, 25% Solutol. The substances were administered orally, daily for […] (day 3 to day 14). […] Practical examples 1 and 2 were applied at a daily dose of 200 (highest dose used), 120 or 70 mg/kg.

[4] = In-vivo tolerability in the mouse; design: species or system female NMRI nude mice; conditions: for Drug-induced deaths (day): 3 animals per group
Method: The substances were formulated in NMP/PEG300 (1/9 V/V). They were administered orally, in an amount of 10 ml/kg, once or twice daily for a period of 5 to 7 days to female NMRI nude mice (6-8 weeks old; 3 animals per group). Body weight and mortality of the mice were monitored daily up to the end of the study. Toxicity was defined as follows: ≧10% substance-induced deaths or ≧20% weight loss.

B16F10 melanoma = B16F10 melanoma tumour model; conditions: for weight loss: oral, day 2 to day 11
Method: (§3) C57BL/6 mice were inoculated on day 0 with 0.5×10^6 cells in 0.1 ml medium, subcutaneously, in the right flank. […] The substances were administered orally for 10 days (day 2 to day 11). […] Practical example 2 was applied at a dose of 160 or 120 mg/kg.

[5] = B16F10 melanoma tumour model; conditions: C57BL/6, mouse, in vivo, po
Method: as §3

B16F10 cells = assay: Cellular proliferation assay (alamarBlue) B16F10; type: cell-based; conditions: Mus musculus, B16-F10, 96 hours, read-out: Melanoma B16F10 IC50
Method: as §1, §2

MCF-7 cells = assay: Cellular proliferation assay (alamarBlue) MCF-7; type: cell-based; conditions: Homo sapiens, MCF7, 96 hours, read-out: Breast MCF-7 IC50
Method: as §1, §2

MOLP-8 cells = assay: Cellular proliferation assay (alamarBlue) MOLP-8; type: cell-based; conditions: Homo sapiens, 120 hours, read-out: Multiple myeloma MOLP-8 IC50
Method: as §1, §2

MDA-MB-231 cells = assay: Cellular proliferation assay (alamarBlue) MDA-MB-231; type: cell-based; conditions: Homo sapiens, 96 hours, read-out: Breast MDA-MB-231 IC50
Method: as §1, §2

[6] = oral 50 mg/kg, QD × 5, twice daily
[7] = oral 100 mg/kg, QD × 5, twice daily
[8] = oral 100 mg/kg, QD × 7, once daily

Cc1sc2c(c1C)C(c1ccc(Cl)cc1)=N[C@@H](CC(=O)OC(C)(C)C)c1nnc(C)n1-2 [Example V1, tert-Butyl[(S)-4-(4-chlorophenyl)-2,3,9-trimethyl-6H-thieno[3,2-f][1,2,4]triazolo[4,3-a][1,4]diazepin-6-yl]acetate, reference compound]
fu (plasma proteins; free fraction of the species investigated (mouse), as used in Table 6): 1.5% | fraction unbound (plasma proteins; mouse, plasma, free (unbound) fraction, equilibrium dialysis, read-out: Protein binding, given as % fu): 0.015 | Plasma concentration ([1]; 1 h): 2245.8 ng/mL | Plasma concentration ([1]; 3 h): 1220.2 ng/mL | Plasma concentration ([1]; 5 h): 587.2 ng/mL | Plasma concentration ([1]; 7 h): 321.5 ng/mL | AUC(0-tlast),norm,u ([1]; single oral dose 60 mg/kg, AUCnorm multiplied by fu): 0.002 kg·h/L | AUC(0-tlast),norm ([1]; single oral dose 60 mg/kg, dose-normalized): 0.12 kg·h/L | tlast ([1]; single oral dose 60 mg/kg, last time point with measurable plasma concentration): 7.0 h | IC50 (VCaP cells): 37 nM | IC50 (LNCaP cells): 63 nM | IC50 (HeLa-MaTu cells): 107 nM | IC50 (MOLM-13 cells [2]): 59 nM | activity on tumour growth (MOLM-13 cells [3]): biologically active | maximum body weight loss ([4]; 50 mg/kg twice daily, on day 6): 7% | highest weight loss ([4]; daily dose of 100 mg/kg for 7 days, on the 9th day): 10% | MTD ([4]; female, NMRI nude, mouse, in vivo, oral, once daily, read-out: maximum tolerated treatment dose (MTD), single daily treatment): 100 mg/kg | % maximum body weight change (day) [4, 6]: −7 (6) % | Remarks (tolerability) [4, 6]: MTD | Drug-induced deaths (day) [4, 6]: 0/3 | % maximum body weight change (day) [4, 7]: −19 (5) % | Remarks (tolerability) ([4]; oral 100 mg/kg, QD × 5, twice daily, 100 mg/kg): Not tolerated | Drug-induced deaths (day) [4, 7]: 2 | % maximum body weight change (day) [4, 8]: −10 (9) % | Remarks (tolerability) ([4]; oral 100 mg/kg, QD × 7, once daily, 100 mg/kg): tolerated; also recorded: MTD (10% body- | Drug-induced deaths (day) [4, 8]: 0/3 | weight loss (B16F10 melanoma; 120 mg/kg dose): 2% | weight loss (B16F10 melanoma; 160 mg/kg dose): 6% | deaths (B16F10 melanoma; on day 12, in both dose groups): One mouse (out of 12) died | MTD at 10 days [5]: 55 mg/kg | IC50 (B16F10 cells): 67 nM | IC50 (MCF-7 cells): 148 nM | IC50 (MOLP-8 cells): 63 nM | IC50 (MDA-MB-231 cells): 86 nM
